Laboratory results taken from paper PMC11308014 (ACS Omega, 2024).

Molecular target: T1, recombinant human dihydrofolate reductase (hDHFR) (Homo sapiens, UniProt P00374)
T1 construct: gene DHFR; commercial recombinant enzyme (R&D, Bio-Techne)
T1 sequence (P00374 1-187): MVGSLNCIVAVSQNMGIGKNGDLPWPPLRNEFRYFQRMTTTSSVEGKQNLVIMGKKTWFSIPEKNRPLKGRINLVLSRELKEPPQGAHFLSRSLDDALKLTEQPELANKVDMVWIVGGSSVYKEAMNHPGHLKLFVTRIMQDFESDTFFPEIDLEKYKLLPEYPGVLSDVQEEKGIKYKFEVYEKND
Assay: NADPH oxidation, absorbance at […] nm
Format: biochemical

Row | Compound | IC50 [nM]
1 | CN(Cc1cnc2nc(N)nc(N)c2n1)c1ccc(C(=O)NCCCC(=O)O)cc1 [compound 4, 4] | 10
2 | CN(Cc1cnc2nc(N)nc(N)c2n1)c1ccc(C(=O)NCCCCCC(=O)O)cc1 [compound 5, 5] | 1210
3 | CN(Cc1cnc2nc(N)nc(N)c2n1)c1ccc(C(=O)NCCCCCCCC(=O)O)cc1 [compound 6, 6] | 1010
4 | CN(Cc1cnc2nc(N)nc(N)c2n1)c1ccc(C(=O)NCCS(=O)(=O)O)cc1 [compound 7, 7] | 3030
